The values below come from patent US10513519B2, “Solid forms of (1S,4S)-4-(2-(((3S,4R)-3-fluorotetrahydro-2H-pyran-4-yl)amino)-8-((2,4,6-trichlorophenyl)amino)-9H-purin-9-yl)-1-methylcyclohexane-1-carboxamide and methods of their use” (Signal Pharmaceuticals, LLC, priority 2016, dated 2019).

The test system of data set [1] is BRAF mutant and beta-catenin mutant or active cancer cell lines. Nature of the data set: Anti-proliferative and apoptotic activity in BRAF mutant and beta-catenin mutant or active cancer cell lines. Format: cell-based. The conditions noted are these: for IC50: read-out: Proliferation IC50. As for the experimental part:
Anti-proliferative and apoptotic activity in BRAF mutant and beta-catenin mutant or active cancer cell lines. The mutation status of BRAF, CTNNB1, KRAS, and EGFR in five cell lines evaluated was based on public data (COSMIC and CCLE) and confirmed internally. β-catenin status was evaluated using TOP Flash reporter system by transient transfection. A cell line was defined as β-catenin active if a ratio of Top Flash reporter over Fop Flash reporter is greater than 2. N/A: Not available. Transfection efficiency in Colo 205 (BRAF V600E) was too low to access its β-catenin activity using this approach. Antiproliferative and apoptotic activity of Compound 1 in the five cell lines were measured as described above.

In the next data set the test system is HCT-116 (colo) cells. Put plainly: Long term colony assay, HCT-116. Format: cell-based. The following applies: HCT-116, up to 8 weeks. The protocol:
Compound 1 was assessed for its ability to inhibit the colony formation of cancer cells via a long-term colony forming assay. Cells and compounds were added to 96-well plates and were monitored for up to 8 weeks for the formation of colonies. Compound and media were replenished every 1 week throughout the course of the assay. Colony formation was detected via imaging at 4× on the IncuCyte ZOOM System. […] (FIGS. 210A-210D).

Data set [2] concerns TEAD reporter (8×GTIIC-luciferase) in W138 VA13 cells. Nature of the data set: TEAD reporter assay. Format: cell-based. The conditions noted are these: cumulative data of three experiments. As for the experimental part:
TEAD reporter activity was analyzed using W138 VA13 cells stably expressing a YAP/TAZ responsive synthetic promoter driving luciferase expression (8×GTIIC-luciferase). 10,000 cells per well were seeded on a white-walled 96-well plate and left overnight. After 16-20 hours, cells were treated with compound and TEAD reporter activity was measured 24 or 72 hours later using Bright Glo luciferase assay (Promega) according to the manufacturer's instructions. This assay was performed 3 times for Compound 1 and twice for Trametinib.

Data set [3] concerns DUSP4, DUSP6, SPRY2, c-Myc, cyclin D1, Axin2, CTGF, AREG mRNA in Colo 205 (BRAF V600E). Put plainly: Quantitative PCR (Cell-To-CT kit) in Colo 205. Format: cell-based. The protocol:
The ability of Compound 1 to inhibit MAPK signaling was assessed by determining the DUSP4 and DUSP6 protein expression. Colon cancer cell line Colo 205 (BRAF V600E) cultures were treated with DMSO or increasing concentrations of Compound 1 for 2, 8 or 24 h. Proteins were extracted from treated cells and analyzed by Western blot using antibodies against DUSP4, DUSP6, cyclin D1, c-Myc, YAP or β-actin. RNAs were extracted using Cell-To-CT kit and quantitative PCR was performed with probes specific for DUSP4, DUSP6, SPRY2, c-Myc and cyclin D1. Specific probes for β-actin were used for normalization.
Cellular activity against beta-catenin and YAP target genes by Compound 1 was evaluated. Colon cancer cell line Colo 205 (BRAF V600E) cultures were treated with DMSO or increasing concentrations of Compound 1 for 2, 8 or 24 h. RNAs were extracted using Cell-To-CT kit and quantitative PCR was performed with probes specific for Axin2, CTGF, and AREG. Specific probes for β-actin were used for normalization.
Compound 1 modulation of MAPK, WNT/β-catenin, and Hippo/YAP pathway genes was evaluated by real-time (RT)-qPCR. […], SW48, and Colo-205 cells were plated in 96-well plates at a density of 20,000 cells per well and were allowed to attach overnight. Compound 1 was added to cells at half log concentrations from 1 nM to 10 μM for durations of 2, 8, and 24 hours. Cells were harvested using the TaqMan Gene Expression Cells-to-CT Kit according to the product manual. Next, RT-PCR was performed and the resulting cDNA was used in qPCR reactions on the ViiA7 Real-Time PCR System (Thermo Fisher Scientific). TaqMan probes were used to monitor changes in DUSP4, DUSP6, SPRY2, MYC, CCND1, AXIN2, CTGF, Cyr61, AREG, and ACTB genes. All genes were normalized to ACTB expression and reported as percentage of DMSO-only control.

Another data set has as its system pRSK1 S380 in AGS cells. Put plainly: pRSK1 S380 Mesoscale assay in AGS. Format: cell-based. The conditions noted are these: Homo sapiens, 2 h treatment, n = 3. The protocol:
Cancer cells were seeded at a density of 25,000 cells per well in 96-well tissue culture plates and incubated at 37° C. in a CO2 incubator overnight. After treatment with Compound 1 at 37° C. for 2 h, the cells were lysed with Mesoscale lysis buffer and pRSK S380 levels in each lysate were measured via Mesoscale ELISA technology.

The subject of data set [4] is cell lines having β-catenin mutations. Put plainly: Sensitivity of cell lines by mutation status (β-catenin, BRAF, RB, PI3K/PTEN). Format: cell-based. The protocol: Evaluation of sensitivity in cell lines having beta-catenin mutations. The effect of Compound 1 on cell lines having β-catenin mutations was evaluated. (FIG. 205 and FIGS. 206A-206B).
The subject of another data set is PDX146 xenograft. Nature of the data set: PDX1994060146 (PDX146) subcutaneous colorectal patient-derived xenograft model. Format: in vivo, NSG mice. The protocol: A time to progression (TTP) study was performed to determine the effect of longer treatment duration on tumor growth.
In the first experiment Compound 1 was administered orally, QD at 1, 5, and 15 mg/kg or 5 and 15 mg/kg BID for 22 days.
In the TTP study, Compound 1 was administered orally, 1, 5, and 15 mg/kg BID for 49-77 days. Compound 1 treatment groups were dosed throughout the duration of the study until the group mean reached the predetermined endpoint of approximately 1200 mm^3 or study termination. Tumor growth delay (TGD) was calculated as the time between the termination of the vehicle control group (on day 43) and the Compound 1 treatment groups. The TGD was 8, 12 and >37 days for the 1, 5 and 15 mg/kg treatment groups, respectively.
(In general: A xenograft is tissue or cells of one species grown in another, often human tumour cells in immunodeficient mice.)

The next data set is described as follows: pKa. Format: physicochemical.
The test system of data set [5] is WI38 VA13 cells expressing 8×GTIIC-luciferase. Nature of the data set: Viability assay (Cell Titer Fluor). The following applies: 24 or 72 hours, three assays. Format: cell-based. The protocol:
In parallel 10,000 WI38 VA13 cells expressing 8×GTIIC-luciferase were seeded in each well of a black-walled 96-well plate. After 16-20 hours cells were treated with compound for 24 or 72 hours. At this time the serum and compound containing media was removed and replaced with 100 μl serum free media and 100 μl Cell Titer Fluor (Promega). The plate was incubated for 2 hours at 37° C. before reading fluorescence output. This assay is based on measurement of live-cell protease activity. The viability assay was performed to confirm that any effects of compounds on TEAD reporter were not the result of compound effects on viability. This assay was performed 3 times for Compound 1 and twice for Trametinib.

The mark [6] stands for this setting: AGS, Gastric, CTNNB1 (G43E), KRAS (G12D), β-catenin active.

One may read the pKa as the pH at which an ionisable group is half protonated.

Where two headings read alike, the source gives them in different places.

In the case of `C[C@]1(C(N)=O)CC[C@@H](n2c(Nc3c(Cl)cc(Cl)cc3Cl)nc3cnc(N[C@@H]4CCOC[C@H]4F)nc32)CC1` [Compound 1, cis-4-[2-{[(3S,4R)-3-fluorooxan-4-yl]amino}-8-(2,4,6-trichloroanilino)-9H-purin-9-yl]-1-methylcyclohexane-1-carboxamide], the “proliferation and apoptosis in BRAF mutant and beta-catenin mutant or active cancer cell lines” value in data set [1] was “potently inhibits proliferation and induces apoptosis”. Further, in data set [1] (setting [6]), the “Apoptosis induction CalX2” value was found to be 0.004 ± 0.002 µM. In addition, the IC50 in data set [1] (setting [6]) is 28 nM; in [1] (Homo sapiens, Colo 205, CRC, BRAF (V600E)), 36 nM; in [1] (Homo sapiens, Hep3B, HCC, β-catenin active) it was 14 nM; in data set [1] (Homo sapiens, LOX-IMVI, Melanoma, BRAF (V600E), β-catenin inactive), 25 nM; in data set [1] (Homo sapiens, SW48, CRC, CTNNB1 (S33Y), EGFR (G179S), β-catenin active), 9 nM; in data set [2] (24 hour assay), over 10000 nM. The IC50 is 1850 nM in data set [2] (72 hour assay) and 20 nM in the data set with pRSK1 S380 in AGS cells. For the same compound, the “inhibition of colony formation vs trametinib and GDC0994” value in the data set on HCT-116 (colo) cells is recorded as “greater levels of inhibition than seen with treatment with MEK inhibitors or ERK inhibitors”. The “Axin2 RNA” value in data set [3] (Colo 205) is “increased Axin2 RNA”. The “expression of Hippo/YAP target genes (CTGF, AREG)” value in [3] (Colo 205, 2, 8 and 24 hr) is recorded as “significantly reduced”. Moreover, in data set [3] (Colo 205, 2, 8 or 24 h), the SPRY2 transcription entry is reported as “reduction of SPRY2 transcription in a concentration-dependent manner”. Besides, the “efficacy against cell lines with mutated β-catenin” value in [4] is reported as “showed efficacy”. The “antitumor activity of 15 mg/kg BID compared to 15 mg/kg QD” value in the data set with PDX146 xenograft (22 days) is listed as “appeared to increase the antitumor activity”. In the data set on PDX146 xenograft (orally, QD at 1, 5, and 15 mg/kg or 5 and 15 mg/kg BID for 22 days), the antitumor activity entry is given as “Dose-dependent antitumor activity”. In the data set “pKa”, this compound yielded a pKa of 5.14. In addition, in data set [5], the viability result was “not reproducibly affected”.
